Assay results from article PMC6149822, “A New Series of Pyrrole-Based Chalcones: Synthesis and Evaluation of Antimicrobial Activity, Cytotoxicity, and Genotoxicity” (Molecules : A Journal of Synthetic Chemistry and Natural …, 2017).

Assays:
Experiment in all cases: ATP luminescence microbial cell viability assay
Conditions in all cases: 24 h treatment, result in words
C. glabrata = type: cell-based, Candida glabrata
Experimental: (§1) A model from BioTek Instruments Inc. combined with a BacTiter-Glo^TM Microbial Cell Viability assay (Promega Corp., Madison, WI, USA) was used to provide a sensitive and rapid method for determining the number of viable microbial cells in culture based on quantitation of the ATP present. […] After incubation, cultures were added into the wells (final concentration of bacteria was 5 × 10^5 CFU/mL and 2.5 × 10^6 CFU/mL for yeasts). After adding the BacTiter reagent, incubation time for bacteria and yeasts was 5 min and 15 min, respectively.
(§2) The assay generates a “glow-type” luminescent signal, produced by the luciferase reaction. Briefly, after chemicals and strains were incubated for 24 h, 100 µL of the culture was taken from each well and mixed with the same volume of the BacTiter-Glo™ reagent in a white, opaque-walled microtiter plate. Control wells containing medium without cells were prepared to obtain a value for background luminescence. Cells without compound were used as an ATP-positive control. The microplates were further incubated under agitation for 7 min. Bioluminescence was recorded in a multi-detection microplate reader (BioTek Synergy 2 Multi-Mode Microplate Reader, BioTek Instruments, Winooski, VT, USA). In Figure 3, results were given as percentage of untreated control, which is set at 100%. Experiments were performed in triplicate and each sample was measured in four replicates.

C. albicans = type: cell-based, Candida albicans
Experimental: as §1
The assay generates a “glow-type” luminescent signal, produced by the luciferase reaction. Briefly, after chemicals and strains were incubated for 24 h, 100 µL of the culture was taken from each well and mixed with the same volume of the BacTiter-Glo™ reagent in a white, opaque-walled microtiter plate. Control wells containing medium without cells were prepared to obtain a value for background luminescence. Cells without compound were used as an ATP-positive control. The microplates were further incubated under agitation for 7 min. Bioluminescence was recorded in a multi-detection microplate reader (BioTek Synergy 2 Multi-Mode Microplate Reader, BioTek Instruments, Winooski, VT, USA). […] Experiments were performed in triplicate and each sample was measured in four replicates.

E. faecalis (ATCC 29212) = type: cell-based, Enterococcus faecalis
Experimental: as §1, §2

Compound: Cn1cccc1C(=O)C=Cc1ccc(-c2ccc(Cl)cc2)o1 [Compound 7, 1-(1-Methyl-1H-pyrrol-2-yl)-3-(5-(4-chlorophenyl)furan-2-yl)prop-2-en-1-one]
- antifungal activity in ATP bioluminescence assay (C. glabrata): antifungal activity close to ketoconazole
- antifungal activity in ATP bioluminescence assay (C. albicans): no statistically significant effects
- antimicrobial activity in ATP bioluminescence assay (E. faecalis (ATCC 29212)): sensitive
